Experimental data as given in patent US9012365B2, “Compatibility agents for herbicidal formulations comprising 2,4-(Dichlorophenoxy) acetic acid salts” (priority 2006, dated 2015).

Assays:
Format in all cases: physicochemical
[1] = Solubility of tested chemical in DI water
Description: (§1) In example 1, the electrolyte tolerance of 6 chemicals with and without the presence of 2,4-D amine was evaluated in ammonium sulfate system.

[2] = Appearance of 10 g solution of (2.5 wt % ai 2,4-D DMA + tested chemical) after adding 40% AMS; conditions: for 0 gram Appearance / Addition Weight of 40% AMS: System was clear after adding / Addition Weight of 40% AMS: System was cloud after adding: 0.13 wt % a.i. of tested chemical, 2.5 wt % ai 2,4-D DMA; for 0 gram Appearance: 0 gram 40% AMS; for Addition Weight of 40% AMS: System was clear after adding / Addition Weight of 40% AMS: System was cloud after adding: 10 g solution; for Added 40% AMS wt into 10 g (2.5% 2,4-D + 0.13% tested chemical in DI water), hazy / Added 40% AMS wt into 10 g (2.5% 2,4-D + 0.13% tested chemical in DI water), still clear: Table of Example 1; for Appearance, added 40% AMS wt into 10 g (2.5% 2,4-D + 0.13% tested chemical in DI water): at 0 g AMS added, or at all additions (All)
Description: In this example, the appearance of a 10 g solution of (2.5 wt % ai 2,4-D DMA+tested chemical) was evaluated after adding 40% AMS

[3] = Electrolyte tolerance: 40% AMS added into 10 g 0.13% tested chemical in DI water; conditions: for Appearance, added 40% AMS wt into 10 g 0.13% tested chemical in DI water: at 0 g AMS added, or at all additions (All); for Added 40% AMS wt into 10 g 0.13% tested chemical in DI water, hazy / Added 40% AMS wt into 10 g 0.13% tested chemical in DI water, still clear: no 2,4-D; for Solubility / compatibility in water or AMS solution (in words): without 2,4-D amine
Description: as §1

[4] = Solubility of tested chemical in 40% AMS (ammonium sulfate)
Description: as §1

[5] = Crystal formation of 2,4-D in 1000 ppm hard water + AMS after post-adding surfactant; conditions: for Appearance of sample: 0.069 g surfactant added to 3% 2,4-DMA (50%) + 90% water (1000 ppm hardness) + 7% AMS (40%), room temperature
Excerpt: FIG. 3 is a photograph illustrating the effect of various concentrations of cocoamine-2EO (“Coco-2”) and/or tallow-10EO (“Tallow-10”) on crystal formation of 2,4-D. (A) 0% Coco-2/0% Tallow-10. (B) 100% Coco-2/0% Tallow-10. (C) 45% Coco-2/55% Tallow-10. (D) 50% Coco-2/50% Tallow-10. (E) 55% Coco-2/45% Tallow-10.(F) 60% Coco-2/40% Tallow-10. (G) 0% Coco-2/100% Tallow-10.
In FIG. 3, sample (0:0) was 3% 2,4-DMA (50%)+90% water (1000 ppm hardness)+7% AMS (40%) and it readily formed crystals at room temperature.
The first sample, (0:0), on the left had no surfactant and it had about 15% crystal at the bottom. The rest of the samples had 0.069 g surfactant post-added to the first sample. […] Sample (0:100) was a little hazy with ˜5% crystal at bottom.

[6] = Appearance of 10 g solution of (2.5 wt % ai 2,4-D DMA + tested chemical) after adding 40% AMS; conditions: summary statement of the description

Row | Solubility of tested chemical in DI Water [1] | 0 gram Appearance [2] | Addition Weight of 40% AMS: System was clear after adding [2] | Addition Weight of 40% AMS: System was cloud after adding [2] | Added 40% AMS wt into 10 g (2.5% 2,4-D + 0.13% tested chemical in DI water), hazy [2] | Added 40% AMS wt into 10 g (2.5% 2,4-D + 0.13% tested chemical in DI water), still clear [2] | Appearance, added 40% AMS wt into 10 g (2.5% 2,4-D + 0.13% tested chemical in DI water) [2] | Solubility of testes chemical in 40% AMS [4] | Suitability for increasing the solubility of 2,4-D non-amine salt (in words) [6] | Molecule | Appearance, added 40% AMS wt into 10 g 0.13% tested chemical in DI water [3] | also measured
1 |  | Clear |  | 0.461 grams |  |  |  |  | ineffective | CC(C)O [Isopropyl alcohol] |  | 
2 |  |  |  |  |  |  |  |  | ineffective | CCCCCCCCO [octanol] |  | 
3 |  |  |  |  |  |  |  |  | ineffective | ethoxylated (2EO) cocoamide oxides |  | 

The next lines start with the molecule.

Row | Molecule | Solubility of tested chemical in DI Water [1] | 0 gram Appearance [2] | Addition Weight of 40% AMS: System was clear after adding [2] | Addition Weight of 40% AMS: System was cloud after adding [2] | Added 40% AMS wt into 10 g (2.5% 2,4-D + 0.13% tested chemical in DI water), hazy [2] | Added 40% AMS wt into 10 g (2.5% 2,4-D + 0.13% tested chemical in DI water), still clear [2] | Appearance, added 40% AMS wt into 10 g (2.5% 2,4-D + 0.13% tested chemical in DI water) [2] | Solubility of testes chemical in 40% AMS [4] | Suitability for increasing the solubility of 2,4-D non-amine salt (in words) [6] | Appearance, added 40% AMS wt into 10 g 0.13% tested chemical in DI water [3] | also measured
4 | Castor oil ethoxylate-36EO | >20% | Clear | 1.726 grams | 2.141 grams | 2.14 g | 1.73 g | clear | <0.036% |  | clear | AMS electrolyte tolerated relative to 55EO castor oil ethoxylate ([2]; in 2.5% 2,4-D DMA solution): 3 times; Added 40% AMS wt into 10 g 0.13% tested chemical in DI water, hazy [3]: 3.74 hazy g; Added 40% AMS wt into 10 g 0.13% tested chemical in DI water, still clear [3]: 3.57 g
5 | Castor oil ethoxylate-10EO | <0.007% | Haze | Haze | 0 grams |  |  | All hazy | <0.007% |  | All hazy | Solubility / compatibility in water or AMS solution (in words) [3]: little compatibility
6 | Tallowamine-10EO |  | Clear | 1.503 grams | 1.717 grams |  |  |  |  |  |  | Appearance of sample [5]: dissolved most crystals; Appearance of sample ([5]; listed as Sample (0:100)): a little hazy; Crystal at bottom ([5]; 0.069 g surfactant post-added to sample (0:0)): ~5%
7 | CCCCC(CC)COC(=O)CC(C(=O)OCC(CC)CCCC)S(=O)(=O)[O-].[Na+] (stereo not drawn) [Sodium dioctyl sulfonsuccinate] |  | very cloudy | very cloudy | 0 grams |  |  |  |  | ineffective |  | 
8 | Hexyl glycoside | All clear | Clear | 0.179 grams | 0.359 grams | 0.36 g hazy | 0.18 g | clear | All clear |  | All clear | Compatibility in 2,4-D amine and AMS solution (in words) [2]: poor compatibility agent; Solubility / compatibility in water or AMS solution (in words) [3]: excellent solubility in water and electrolyte tolerance
9 | CN1CCCC1=O [Methyl-2-pyrrolidinone] |  | Clear | 0.36 grams | 0.567 grams |  |  |  |  | ineffective |  | 
10 | Castor oil ethoxylate-55EO | >20% | Clear | 0.476 grams | 0.554 grams | 0.55 g | 0.48 g | clear |  |  | clear | Added 40% AMS wt into 10 g 0.13% tested chemical in DI water, hazy [3]: 3.74 hazy g; Added 40% AMS wt into 10 g 0.13% tested chemical in DI water, still clear [3]: 3.63 g
